Measured values as given in ChEMBL document CHEMBL3046126, “Synthesis and Herbicidal Activity of New Oxazolidinedione Derivatives” (J Pestic Sci, 1999).

Tests used:
[1] = system: Rotala indica; assay: Pre-emergence herbicidal activity against Rotala indica assessed as phytotoxic weed control visual ratings at 1.25 kg ai/ha measured after 14 days post treatment under flooded conditions; type: functional
[2] = system: Lindernia procumbens; assay: Pre-emergence herbicidal activity against Lindernia procumbens assessed as phytotoxic weed control visual ratings at 1.25 kg ai/ha measured after 14 days post treatment under flooded conditions; type: functional
[3] = system: Schoenoplectiella juncoides; assay: Pre-emergence herbicidal activity against Schoenoplectiella juncoides assessed as phytotoxic weed control visual ratings at 1.25 kg ai/ha measured after 14 days post treatment under flooded conditions; type: functional
[4] = system: Oryza sativa; assay: Pre-emergence phytotoxicity against Oryza sativa cv. Koshihikari (rice) assessed as phytotoxic crop injury visual ratings at 1.25 kg ai/ha measured after 14 days post treatment under flooded conditions; type: organism-based; details: in vivo, other, 336 h
[5] = system: Elatine triandra; assay: Pre-emergence herbicidal activity against Elatine triandra assessed as phytotoxic weed control visual ratings at 1.25 kg ai/ha measured after 14 days post treatment under flooded conditions; type: functional
[6] = system: Cyperus difformis; assay: Pre-emergence herbicidal activity against Cyperus difformis assessed as phytotoxic weed control visual ratings at 1.25 kg ai/ha measured after 14 days post treatment under flooded conditions; type: functional
[7] = system: Echinochloa oryzicola; assay: Pre-emergence herbicidal activity against Echinochloa oryzicola assessed as phytotoxic weed control visual ratings at 1.25 kg ai/ha measured after 14 days post treatment under flooded conditions; type: functional
[8] = system: Pontederia vaginalis; assay: Pre-emergence herbicidal activity against Monochoria vaginalis assessed as phytotoxic weed control visual ratings at 1.25 kg ai/ha measured after 14 days post treatment under flooded conditions; type: functional
[9] = system: Oryza sativa; assay: Pre-emergence phytotoxicity against Oryza sativa cv. Koshihikari (rice) assessed as phytotoxic crop injury visual ratings at 25 g ai/ha measured after 14 days post treatment under flooded conditions; type: organism-based; details: in vivo, other, 336 h
[10] = system: Pontederia vaginalis; assay: Pre-emergence herbicidal activity against Monochoria vaginalis assessed as phytotoxic weed control visual ratings at 25 g ai/ha measured after 14 days post treatment under flooded conditions; type: functional
[11] = system: Digitaria ciliaris; assay: Pre-emergence herbicidal activity against Digitaria ciliaris assessed as phytotoxic weed control visual ratings at 500 g ai/ha measured after 14 days post treatment under upland field conditions; type: functional
[12] = system: Elatine triandra; assay: Pre-emergence herbicidal activity against Elatine triandra assessed as phytotoxic weed control visual ratings at 25 g ai/ha measured after 14 days post treatment under flooded conditions; type: functional
[13] = system: Amaranthus viridis; assay: Pre-emergence herbicidal activity against Amaranthus viridis assessed as phytotoxic weed control visual ratings at 500 g ai/ha measured after 14 days post treatment under upland field conditions; type: functional
[14] = system: Zea mays; assay: Pre-emergence phytotoxicity against Zea mays (maize) assessed as phytotoxic crop injury visual ratings at 500 g ai/ha measured after 14 days post treatment under upland field conditions; type: organism-based; details: in vivo, other, 336 h
[15] = system: Lindernia procumbens; assay: Pre-emergence herbicidal activity against Lindernia procumbens assessed as phytotoxic weed control visual ratings at 25 g ai/ha measured after 14 days post treatment under flooded conditions; type: functional
[16] = system: Chenopodium album; assay: Pre-emergence herbicidal activity against Chenopodium album assessed as phytotoxic weed control visual ratings at 500 g ai/ha measured after 14 days post treatment under upland field conditions; type: functional
[17] = system: Rotala indica; assay: Pre-emergence herbicidal activity against Rotala indica assessed as phytotoxic weed control visual ratings at 25 g ai/ha measured after 14 days post treatment under flooded conditions; type: functional
[18] = system: Schoenoplectiella juncoides; assay: Pre-emergence herbicidal activity against Schoenoplectiella juncoides assessed as phytotoxic weed control visual ratings at 25 g ai/ha measured after 14 days post treatment under flooded conditions; type: functional
[19] = system: Echinochloa crus-galli; assay: Pre-emergence herbicidal activity against Echinochloa crus-galli (barnyard grass) assessed as phytotoxic weed control visual ratings at 500 g ai/ha measured after 14 days post treatment under upland field conditions; type: functional
[20] = system: Echinochloa oryzicola; assay: Pre-emergence herbicidal activity against Echinochloa oryzicola assessed as phytotoxic weed control visual ratings at 25 g ai/ha measured after 14 days post treatment under flooded conditions; type: functional
[21] = system: Cyperus difformis; assay: Pre-emergence herbicidal activity against Cyperus difformis assessed as phytotoxic weed control visual ratings at 25 g ai/ha measured after 14 days post treatment under flooded conditions; type: functional
[22] = system: Echinochloa oryzicola; assay: Pre-emergence herbicidal activity against Echinochloa oryzicola assessed as phytotoxic weed control visual ratings at 2.5 kg ai/ha measured after 14 days post treatment under flooded conditions; type: functional
[23] = system: Oryza sativa; assay: Pre-emergence phytotoxicity against Oryza sativa cv. Koshihikari (rice) assessed as phytotoxic crop injury visual ratings at 2.5 kg ai/ha measured after 14 days post treatment under flooded conditions; type: organism-based; details: in vivo, other, 336 h
[24] = system: Lindernia procumbens; assay: Pre-emergence herbicidal activity against Lindernia procumbens assessed as phytotoxic weed control visual ratings at 2.5 kg ai/ha measured after 14 days post treatment under flooded conditions; type: functional
[25] = system: Cyperus difformis; assay: Pre-emergence herbicidal activity against Cyperus difformis assessed as phytotoxic weed control visual ratings at 2.5 kg ai/ha measured after 14 days post treatment under flooded conditions; type: functional
[26] = system: Rotala indica; assay: Pre-emergence herbicidal activity against Rotala indica assessed as phytotoxic weed control visual ratings at 2.5 kg ai/ha measured after 14 days post treatment under flooded conditions; type: functional
[27] = system: Schoenoplectiella juncoides; assay: Pre-emergence herbicidal activity against Schoenoplectiella juncoides assessed as phytotoxic weed control visual ratings at 2.5 kg ai/ha measured after 14 days post treatment under flooded conditions; type: functional
[28] = system: Pontederia vaginalis; assay: Pre-emergence herbicidal activity against Monochoria vaginalis assessed as phytotoxic weed control visual ratings at 2.5 kg ai/ha measured after 14 days post treatment under flooded conditions; type: functional
[29] = system: Elatine triandra; assay: Pre-emergence herbicidal activity against Elatine triandra assessed as phytotoxic weed control visual ratings at 2.5 kg ai/ha measured after 14 days post treatment under flooded conditions; type: functional
[30] = Selectivity index, ratio of ED10 for Oryza sativa to ED90 for Echinochloa oryzicola by pre-emergence exposure method
[31] = system: Oryza sativa; assay: Pre-emergence phytotoxicity against Oryza sativa cv. Koshihikari (rice) assessed as phytotoxic crop injury visual ratings measured after 14 days post treatment; type: organism-based; details: in vivo, 336 h
[32] = Selectivity index, ratio of ED10 for Oryza sativa to ED90 for Echinochloa oryzicola by post-emergence exposure method
[33] = system: Oryza sativa; assay: Post-emergence phytotoxicity against Oryza sativa cv. Koshihikari (rice) assessed as phytotoxic crop injury visual ratings measured after 14 days post treatment; type: organism-based; details: in vivo, 336 h

SMILES: CC/C(C)=C1/OC(=O)N(c2ccc(F)cc2)C1=O
- Phytotoxicity [1]: 100%
- Phytotoxicity [2]: 100%
- Phytotoxicity [3]: 60%
- Phytotoxicity [4]: 0%
- Phytotoxicity [5]: 100%
- Phytotoxicity [6]: 100%
- Phytotoxicity [7]: 10%
- Phytotoxicity [8]: 100%

SMILES: CCC(C)Oc1cc(N2C(=O)OC(=C(C)C)C2=O)c(F)cc1Cl (stereo not given)
- Phytotoxicity [9]: 10%
- Phytotoxicity [10]: 100%
- Phytotoxicity [11]: 80%
- Phytotoxicity [12]: 100%
- Phytotoxicity [13]: 90%
- Phytotoxicity [14]: 0%
- Phytotoxicity [15]: 100%
- Phytotoxicity [16]: 10%
- Phytotoxicity [17]: 100%
- Phytotoxicity [18]: 100%
- Phytotoxicity [19]: 20%
- Phytotoxicity [20]: 80%
- Phytotoxicity [21]: 100%

SMILES: C=CC1(C)OC(=O)N(c2cc(Cl)cc(Cl)c2)C1=O (stereo not given) [VINCLOZOLIN]
- Phytotoxicity [22]: 90%
- Phytotoxicity [23]: 0%
- Phytotoxicity [24]: 50%
- Phytotoxicity [25]: 50%
- Phytotoxicity [26]: 50%
- Phytotoxicity [27]: 30%
- Phytotoxicity [28]: 50%
- Phytotoxicity [29]: 50%

SMILES: CC(C)=C1OC(=O)N(c2c(Cl)cc(Cl)cc2Cl)C1=O
- Phytotoxicity [22]: 30%
- Phytotoxicity [23]: 0%
- Phytotoxicity [24]: 100%
- Phytotoxicity [25]: 100%
- Phytotoxicity [26]: 100%
- Phytotoxicity [27]: 20%
- Phytotoxicity [28]: 100%
- Phytotoxicity [29]: 100%

SMILES: CC(C)=C1OC(=O)N(c2cc(Cl)cc(Cl)c2)C1=O
- Phytotoxicity [22]: 0%
- Phytotoxicity [23]: 0%
- Phytotoxicity [24]: 50%
- Phytotoxicity [25]: 30%
- Phytotoxicity [26]: 50%
- Phytotoxicity [27]: 30%
- Phytotoxicity [28]: 50%
- Phytotoxicity [29]: 50%

SMILES: CCCCCCOc1cc(N2C(=O)OC(=C(C)C)C2=O)c(F)cc1Cl
- Phytotoxicity [9]: 0%
- Phytotoxicity [10]: 90%
- Phytotoxicity [11]: 10%
- Phytotoxicity [12]: 70%
- Phytotoxicity [13]: 100%
- Phytotoxicity [14]: 0%
- Phytotoxicity [15]: 70%
- Phytotoxicity [16]: 50%
- Phytotoxicity [17]: 70%
- Phytotoxicity [18]: 60%
- Phytotoxicity [19]: 10%
- Phytotoxicity [20]: 10%
- Phytotoxicity [21]: 80%

SMILES: CC(C)=C1OC(=O)N(c2cccc(Cl)c2)C1=O
- Phytotoxicity [22]: 0%
- Phytotoxicity [23]: 0%
- Phytotoxicity [24]: 30%
- Phytotoxicity [25]: 30%
- Phytotoxicity [26]: 30%
- Phytotoxicity [27]: 10%
- Phytotoxicity [28]: 30%
- Phytotoxicity [29]: 30%

SMILES: C#CC(C)Oc1cc(N2C(=O)OC(=C(C)C)C2=O)c(F)cc1Cl (stereo not given)
- Phytotoxicity [9]: 20%
- Selectivity Index [30]: 4
- ED10 [31]: 6.25 gAi/ha
- Phytotoxicity [14]: 10%
- Selectivity Index [32]: 2
- ED10 [33]: 12.5 gAi/ha

SMILES: CC(C)=C1OC(=O)N(c2cc(O)c(Cl)cc2F)C1=O
- Phytotoxicity [9]: 0%
- Phytotoxicity [10]: 10%
- Phytotoxicity [11]: 0%
- Phytotoxicity [12]: 10%
- Phytotoxicity [13]: 0%
- Phytotoxicity [14]: 0%
- Phytotoxicity [15]: 10%
- Phytotoxicity [16]: 10%
- Phytotoxicity [17]: 10%
- Phytotoxicity [18]: 0%
- Phytotoxicity [19]: 0%
- Phytotoxicity [20]: 0%
- Phytotoxicity [21]: 30%

SMILES: CC(C)=C1OC(=O)N(c2ccccc2Cl)C1=O
- Phytotoxicity [22]: 0%
- Phytotoxicity [23]: 0%
- Phytotoxicity [24]: 0%
- Phytotoxicity [25]: 0%
- Phytotoxicity [26]: 0%
- Phytotoxicity [27]: 0%
- Phytotoxicity [28]: 0%
- Phytotoxicity [29]: 0%

SMILES: COc1cc(N2C(=O)OC(=C(C)C)C2=O)c(F)cc1Cl
- Phytotoxicity [9]: 0%
- Phytotoxicity [10]: 80%
- Phytotoxicity [11]: 90%
- Phytotoxicity [12]: 100%
- Phytotoxicity [13]: 80%
- Phytotoxicity [14]: 30%
- Phytotoxicity [15]: 100%
- Phytotoxicity [16]: 90%
- Phytotoxicity [17]: 100%
- Phytotoxicity [18]: 10%
- Phytotoxicity [19]: 60%
- Phytotoxicity [20]: 30%
- Phytotoxicity [21]: 100%

SMILES: CCOc1cc(N2C(=O)OC(=C(C)C)C2=O)c(F)cc1Cl
- Phytotoxicity [9]: 10%
- Phytotoxicity [10]: 100%
- Phytotoxicity [11]: 90%
- Phytotoxicity [12]: 100%
- Phytotoxicity [13]: 100%
- Phytotoxicity [14]: 10%
- Phytotoxicity [15]: 100%
- Phytotoxicity [16]: 90%
- Phytotoxicity [17]: 100%
- Phytotoxicity [18]: 60%
- Phytotoxicity [19]: 50%
- Phytotoxicity [20]: 30%
- Phytotoxicity [21]: 100%

SMILES: C=C(C)C1(C)OC(=O)N(c2cc(Cl)cc(Cl)c2)C1=O (stereo not given)
- Phytotoxicity [22]: 80%
- Phytotoxicity [23]: 0%
- Phytotoxicity [24]: 60%
- Phytotoxicity [25]: 30%
- Phytotoxicity [26]: 60%
- Phytotoxicity [27]: 20%
- Phytotoxicity [28]: 30%
- Phytotoxicity [29]: 60%

SMILES: CCC(CC)Oc1cc(N2C(=O)OC(=C(C)C)C2=O)c(F)cc1Cl
- Phytotoxicity [9]: 0%
- Phytotoxicity [10]: 100%
- Phytotoxicity [11]: 60%
- Phytotoxicity [12]: 100%
- Phytotoxicity [13]: 90%
- Phytotoxicity [14]: 0%
- Phytotoxicity [15]: 100%
- Phytotoxicity [16]: 90%
- Phytotoxicity [17]: 100%
- Phytotoxicity [18]: 90%
- Phytotoxicity [19]: 30%
- Phytotoxicity [20]: 60%
- Phytotoxicity [21]: 100%
